In publication PMC7615656 (European journal of pharmacology, 2010):

Key:
[1] = target: recombinant rat α1β3γ2 receptors (Rattus norvegicus, UniProt P18508+P62813); experiment: Two-electrode voltage clamp of GABA-induced chloride currents in Xenopus oocytes; assay type: cell-based; details: for efficacy (% GABA EC3): α1β3γ2, ns = not significant
[2] = target: recombinant rat α1β3γ2F77I receptors (Rattus norvegicus, UniProt P18508+P62813, F115I); experiment: as above; assay type: cell-based; details: for efficacy (% GABA EC3): α1β3γ2F77I, ns = not significant
[3] = target: recombinant rat α2β3γ2 receptors (Rattus norvegicus, UniProt P18508+P23576); experiment: as above; assay type: cell-based
[4] = target: recombinant rat α2β3γ2F77I receptors (Rattus norvegicus, UniProt P18508+P23576, F115I); experiment: as above; assay type: cell-based; details: for efficacy (% GABA EC3): α2β3γ2F77I, ns = not significant
[5] = target: recombinant rat α3β3γ2 receptors (Rattus norvegicus, UniProt P18508+P20236); experiment: as above; assay type: cell-based; details: for efficacy (% GABA EC3): α3β3γ2, ns = not significant
[6] = target: recombinant rat α3β3γ2F77I receptors (Rattus norvegicus, UniProt P18508+P20236, F115I); experiment: as above; assay type: cell-based; details: for efficacy (% GABA EC3): α3β3γ2F77I, ns = not significant
[7] = target: recombinant rat α4β3γ2 receptors (Rattus norvegicus, UniProt P18508+P28471); experiment: as above; assay type: cell-based; details: for efficacy (% GABA EC3): α4β3γ2, ns = not significant
[8] = target: recombinant rat α5β3γ2 receptors (Rattus norvegicus, UniProt P18508+P19969); experiment: as above; assay type: cell-based; details: for efficacy (% GABA EC3): α5β3γ2, ns = not significant
[9] = target: recombinant rat α5β3γ2F77I receptors (Rattus norvegicus, UniProt P18508+P19969, F115I); experiment: as above; assay type: cell-based; details: for efficacy (% GABA EC3): α5β3γ2F77I, ns = not significant
[10] = target: recombinant rat α6β3γ2 receptors (Rattus norvegicus, UniProt P18508+P30191); experiment: as above; assay type: cell-based; details: for efficacy (% GABA EC3): α6β3γ2, ns = not significant
[11] = test system: GABAA receptors containing the γ2F77I mutation; experiment: Modulation of GABA EC3 in receptors containing the γ2F77I mutation; assay type: cell-based, rat; details: up to 100 nM
[12] = target: recombinant rat α4β3γ2F77I receptors (Rattus norvegicus, UniProt P18508+P28471, F115I); experiment: Two-electrode voltage clamp of GABA-induced chloride currents in Xenopus oocytes; assay type: cell-based; details: 10 μM, ns = not significant
[13] = read-out: efficacy (% GABA EC3)
[14] = 10 nM, α2β3γ2, ns = not significant
[15] = 100 nM, α2β3γ2, ns = not significant

Chain of recombinant rat α3β3γ2F77I receptors (P20236 29-493): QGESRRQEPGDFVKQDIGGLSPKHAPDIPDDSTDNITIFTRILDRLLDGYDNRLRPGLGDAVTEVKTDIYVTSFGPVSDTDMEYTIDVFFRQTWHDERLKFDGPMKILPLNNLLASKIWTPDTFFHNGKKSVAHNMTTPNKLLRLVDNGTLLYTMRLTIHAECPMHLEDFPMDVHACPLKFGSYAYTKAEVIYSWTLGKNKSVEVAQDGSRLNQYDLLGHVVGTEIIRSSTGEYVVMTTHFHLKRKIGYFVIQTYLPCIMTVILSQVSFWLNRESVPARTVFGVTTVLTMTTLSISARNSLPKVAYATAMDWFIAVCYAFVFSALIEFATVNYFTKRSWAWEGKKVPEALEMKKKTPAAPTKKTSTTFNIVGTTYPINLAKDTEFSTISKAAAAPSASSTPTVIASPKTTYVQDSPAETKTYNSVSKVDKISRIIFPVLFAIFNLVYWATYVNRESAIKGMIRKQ
Chain of recombinant rat α3β3γ2F77I receptors (P63079 26-473 partner): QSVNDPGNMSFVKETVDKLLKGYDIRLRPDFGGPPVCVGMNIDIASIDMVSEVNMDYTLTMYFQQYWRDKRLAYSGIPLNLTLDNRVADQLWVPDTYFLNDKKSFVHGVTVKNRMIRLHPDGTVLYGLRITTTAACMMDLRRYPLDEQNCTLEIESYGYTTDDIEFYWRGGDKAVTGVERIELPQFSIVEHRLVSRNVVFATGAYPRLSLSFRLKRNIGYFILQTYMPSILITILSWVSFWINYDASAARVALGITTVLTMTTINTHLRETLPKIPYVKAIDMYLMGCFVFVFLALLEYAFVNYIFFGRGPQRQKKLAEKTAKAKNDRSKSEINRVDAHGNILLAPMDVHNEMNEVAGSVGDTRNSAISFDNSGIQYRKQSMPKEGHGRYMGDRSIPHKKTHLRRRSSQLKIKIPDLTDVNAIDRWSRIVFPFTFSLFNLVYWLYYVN
Chain of recombinant rat α3β3γ2F77I receptors (P18508 39-466 F115I): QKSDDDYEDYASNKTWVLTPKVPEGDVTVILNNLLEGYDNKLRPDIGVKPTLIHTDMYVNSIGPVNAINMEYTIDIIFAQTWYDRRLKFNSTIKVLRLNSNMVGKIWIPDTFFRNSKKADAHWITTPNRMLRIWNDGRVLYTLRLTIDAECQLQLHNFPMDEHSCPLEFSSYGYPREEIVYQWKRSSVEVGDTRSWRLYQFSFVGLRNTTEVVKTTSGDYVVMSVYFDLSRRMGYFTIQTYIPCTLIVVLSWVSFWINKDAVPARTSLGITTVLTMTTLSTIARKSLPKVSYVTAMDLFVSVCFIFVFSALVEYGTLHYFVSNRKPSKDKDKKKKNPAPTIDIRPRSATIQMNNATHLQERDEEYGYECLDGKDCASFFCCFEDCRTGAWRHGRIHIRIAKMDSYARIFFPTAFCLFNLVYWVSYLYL
Chain of recombinant rat α3β3γ2 receptors (P20236 29-493): as the sequence (P20236 29-493) above
Chain of recombinant rat α3β3γ2 receptors (P63079 26-473 partner): as the sequence (P63079 26-473 partner) above
Chain of recombinant rat α3β3γ2 receptors (P18508 39-466): as the sequence (P18508 39-466 F115I) above, with I77F counted along it
Chain of recombinant rat α4β3γ2 receptors (P28471 36-552): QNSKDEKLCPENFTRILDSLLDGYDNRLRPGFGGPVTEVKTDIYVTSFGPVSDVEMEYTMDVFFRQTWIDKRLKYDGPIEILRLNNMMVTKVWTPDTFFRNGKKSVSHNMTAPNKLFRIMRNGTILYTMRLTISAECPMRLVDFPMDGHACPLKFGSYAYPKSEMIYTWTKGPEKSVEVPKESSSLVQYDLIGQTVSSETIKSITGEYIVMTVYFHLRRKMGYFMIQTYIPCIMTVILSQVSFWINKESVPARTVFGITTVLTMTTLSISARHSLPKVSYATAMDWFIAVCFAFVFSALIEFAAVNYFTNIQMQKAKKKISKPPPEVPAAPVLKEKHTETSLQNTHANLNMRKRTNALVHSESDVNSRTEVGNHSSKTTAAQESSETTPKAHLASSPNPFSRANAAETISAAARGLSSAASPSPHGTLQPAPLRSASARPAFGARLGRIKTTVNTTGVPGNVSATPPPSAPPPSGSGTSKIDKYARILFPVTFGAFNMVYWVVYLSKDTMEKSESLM
Chain of recombinant rat α4β3γ2 receptors (P63079 26-473 partner): as the sequence (P63079 26-473 partner) above
Chain of recombinant rat α4β3γ2 receptors (P18508 39-466): as the sequence (P18508 39-466 F115I) above, with I77F counted along it

COCc1c(C(=O)OC(C)C)ncc2[nH]c3ccc(OCc4ccccc4)cc3c12 [Abecarnil, Isopropyl-6-benzyloxy-4-methoxymethyl-β-carboline-3-carboxylate]
EC50 [1]: > 9000 nM | activity at 0.01 µM [1, 13]: 192 ± 31% | activity at 0.1 µM [1, 13]: 330 ± 58% | activity at 1 µM [1, 13]: 407 ± 83% | activity at 10 µM [1, 13]: 640 ± 157% | efficacy (% GABA EC3) ([2]; 10 nM): ns | efficacy (% GABA EC3) ([2]; 100 nM): ns | activity at 1 µM [2, 13]: 179 ± 25% | activity at 10 µM [2, 13]: 279 ± 42% | EC50 [3]: > 1000 nM | efficacy (% GABA EC3) [3, 14]: ns | efficacy (% GABA EC3) [3, 15]: ns | activity at 1 µM ([3]; read-out: efficacy (% GABA EC3), 1 μM, α2β3γ2, ns = not significant): 261 ± 45% | activity at 10 µM ([3]; read-out: efficacy (% GABA EC3), 10 μM, α2β3γ2, ns = not significant): 353 ± 62% | efficacy (% GABA EC3) ([4]; 10 nM): ns | efficacy (% GABA EC3) ([4]; 100 nM): ns | activity at 1 µM [4, 13]: 206 ± 16% | activity at 10 µM [4, 13]: 420 ± 29% | EC50 [5]: > 2000 nM | efficacy (% GABA EC3) ([5]; 10 nM): ns | activity at 0.1 µM [5, 13]: 216 ± 44% | activity at 1 µM [5, 13]: 320 ± 71% | activity at 10 µM [5, 13]: 480 ± 100% | efficacy (% GABA EC3) ([6]; 10 nM): ns | efficacy (% GABA EC3) ([6]; 100 nM): ns | activity at 1 µM [6, 13]: 192 ± 4% | activity at 10 µM [6, 13]: 384 ± 24% | efficacy (% GABA EC3) ([7]; 1 μM): ns | activity at 10 µM [7, 13]: 279 ± 81% | efficacy (% GABA EC3) ([8]; 10 nM): ns | efficacy (% GABA EC3) ([8]; 100 nM): ns | activity at 1 µM [8, 13]: 169 ± 23% | activity at 10 µM [8, 13]: 232 ± 38% | efficacy (% GABA EC3) ([9]; 10 nM): ns | efficacy (% GABA EC3) ([9]; 100 nM): ns | activity at 1 µM [9, 13]: 177 ± 11% | activity at 10 µM [9, 13]: 283 ± 7% | efficacy (% GABA EC3) ([10]; 1 μM): ns | activity at 10 µM [10, 13]: 218 ± 13% | activity in the mutated receptors [11]: inactive

CCc1c(C(=O)OC)ncc2[nH]c3cc(OC)c(OC)cc3c12 [DMCM, methyl-6,7-dimethoxy-4-ethyl-β-carboline-3-carboxylate]
efficacy (% GABA EC3) ([1]; 10 nM): 87 ± 8 % GABA EC3 | efficacy (% GABA EC3) ([1]; 100 nM): 79 ± 11 % GABA EC3 | efficacy (% GABA EC3) ([1]; 1 μM): ns | efficacy (% GABA EC3) ([1]; 10 μM): 232 ± 54 % GABA EC3 | efficacy (% GABA EC3) ([2]; 10 nM): ns | efficacy (% GABA EC3) ([2]; 100 nM): ns | efficacy (% GABA EC3) ([2]; 1 μM): 123 ± 3 % GABA EC3 | efficacy (% GABA EC3) ([2]; 10 μM): 269 ± 3 % GABA EC3 | efficacy (% GABA EC3) [3, 14]: 71 ± 7 % GABA EC3 | efficacy (% GABA EC3) [3, 15]: 54 ± 5 % GABA EC3 | efficacy (% GABA EC3) ([3]; 1 μM, α2β3γ2, ns = not significant): 54 ± 3 % GABA EC3 | efficacy (% GABA EC3) ([3]; 10 μM, α2β3γ2, ns = not significant): ns | efficacy (% GABA EC3) ([4]; 10 nM): 103 ± 1 % GABA EC3 | efficacy (% GABA EC3) ([4]; 100 nM): 111 ± 2 % GABA EC3 | efficacy (% GABA EC3) ([4]; 1 μM): 123 ± 1 % GABA EC3 | efficacy (% GABA EC3) ([4]; 10 μM): 283 ± 17 % GABA EC3 | efficacy (% GABA EC3) ([5]; 10 nM): 78 ± 1 % GABA EC3 | efficacy (% GABA EC3) ([5]; 100 nM): 69 ± 1 % GABA EC3 | efficacy (% GABA EC3) ([5]; 1 μM): 75 ± 3 % GABA EC3 | efficacy (% GABA EC3) ([5]; 10 μM): 185 ± 15 % GABA EC3 | efficacy (% GABA EC3) ([6]; 10 nM): ns | efficacy (% GABA EC3) ([6]; 100 nM): ns | efficacy (% GABA EC3) ([6]; 1 μM): 126 ± 5 % GABA EC3 | efficacy (% GABA EC3) ([6]; 10 μM): 281 ± 26 % GABA EC3 | efficacy (% GABA EC3) ([7]; 10 nM): ns | efficacy (% GABA EC3) ([7]; 100 nM): 77 ± 1 % GABA EC3 | efficacy (% GABA EC3) ([7]; 1 μM): 88 ± 2 % GABA EC3 | efficacy (% GABA EC3) ([7]; 10 μM): 155 ± 18 % GABA EC3 | efficacy (% GABA EC3) [12]: 155 ± 9 % GABA EC3 | efficacy (% GABA EC3) ([8]; 10 nM): 53 ± 4 % GABA EC3 | efficacy (% GABA EC3) ([8]; 100 nM): 52 ± 5 % GABA EC3 | efficacy (% GABA EC3) ([8]; 1 μM): 56 ± 6 % GABA EC3 | efficacy (% GABA EC3) ([8]; 10 μM): 145 ± 14 % GABA EC3 | efficacy (% GABA EC3) ([9]; 10 nM): ns | efficacy (% GABA EC3) ([9]; 100 nM): ns | efficacy (% GABA EC3) ([9]; 1 μM): ns | efficacy (% GABA EC3) ([9]; 10 μM): 211 ± 40 % GABA EC3 | efficacy (% GABA EC3) ([10]; 10 nM): ns | efficacy (% GABA EC3) ([10]; 100 nM): 118 ± 9 % GABA EC3 | efficacy (% GABA EC3) ([10]; 1 μM): 189 ± 21 % GABA EC3 | efficacy (% GABA EC3) ([10]; 10 μM): 353 ± 22 % GABA EC3
